Legend:
Format in all cases: biochemical
Conditions in all cases: NADPH
[1] = biological target: T1, dihydrofolate reductase (DHFR), natural-type methionine-containing (Met-DHFR) (Escherichia coli, UniProt P0ABQ4); assay: enzymatic properties of DHFR (Table 1): Michaelis constant and maximum velocity, Met-DHFR
T1 construct: made in house; host or cells: wheat embryo extract cell-free protein synthesis (dialysis type)
T1 sequence (P0ABQ4 1-159): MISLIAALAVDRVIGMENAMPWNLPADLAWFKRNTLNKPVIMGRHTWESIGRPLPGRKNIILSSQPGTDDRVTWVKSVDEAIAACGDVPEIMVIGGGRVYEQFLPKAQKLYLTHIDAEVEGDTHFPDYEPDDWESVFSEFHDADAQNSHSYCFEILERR
Protocol: (§1) Purification of GFP and measurement of its activity by analysis of fluorescence spectrum using a fluorospectrophotometer were carried out in accordance with a method by Deschamps, et al. [Deschamps, J. R. et al., (1995) Protein Expression and Purification, 6, 555–558]. In the measurement of fluorescence spectrum, a fluorophotometer of type RF-5000 by Shimadzu was used. DHFR activity was measured by a method of Stanley, et al. [Methods. Enzymol. 18, 195–199 (1971)].
(§2) Then enzymatic properties of the selenomethionine-containing proteins purified as such were investigated biochemically. Fluorescence emission spectrum of a certain concentration of the purified GFP preparation shown in FIG. 2 excited at the wavelength of 395 nm was measured within a range of 410 nm to 600 nm and the result is shown in FIG. 3. As will be apparent from FIG. 3, there is no difference between the fluorescence emission spectra of GFP [(A) in FIG. 3] and selenomethionine GFP [(B) in FIG. 3]. Thus, the conclusion is that the change in GFP activity by substituting methionine residue with selenomethionine is not higher than the usual measurement sensitivity. […]

[2] = biological target: T2, dihydrofolate reductase (DHFR), selenomethionine-containing (SeMet-DHFR) (Escherichia coli, UniProt P0ABQ4); assay: enzymatic properties of DHFR (Table 1): Michaelis constant and maximum velocity, SeMet-DHFR
T2 construct: made in house; host or cells: wheat embryo extract cell-free protein synthesis (dialysis type)
T2 sequence (P0ABQ4 1-159): T1 sequence (P0ABQ4 1-159)
Protocol: as §1, §2

[3] = biological target: T3, dihydrofolate reductase (DHFR), Natural-Type DHFR (Escherichia coli, UniProt P0ABQ4); assay: enzymatic properties of DHFR (Table 2): Michaelis constant and maximum velocity, Natural-Type DHFR
T3 construct: made in house; host or cells: wheat embryo extract cell-free protein synthesis (dialysis type)
T3 sequence (P0ABQ4 1-159): T1 sequence (P0ABQ4 1-159)
Protocol: as §1
Then enzymatic properties of the purified heavy hydrogen-labeled DHFR were biochemically investigated by the same manner as in Example 1. As will be apparent from Table 2, both Vmax and Michaelis constant (Km) to NADPH which are parameters for enzymatic chemical property of natural-type DHFR and heavy hydrogen-labeled DHFR show no difference between both enzymes. Thus, it became clear that DHFR comprising heavy hydrogen-labeled amino acids maintained nearly the same enzymatic activity as the natural-type DHFR.

[4] = biological target: T4, dihydrofolate reductase (DHFR), Heavy Hydrogen-Labeled DHFR (20 kinds of heavy hydrogen-labeled L-amino acids) (Escherichia coli, UniProt P0ABQ4); assay: enzymatic properties of DHFR (Table 2): Michaelis constant and maximum velocity, Heavy Hydrogen-Labeled DHFR
T4 construct: made in house; host or cells: wheat embryo extract cell-free protein synthesis (dialysis type)
T4 sequence (P0ABQ4 1-159): T1 sequence (P0ABQ4 1-159)
Protocol: as §1
With regard to the wheat embryo, that being contaminated with substantially no endosperm component prepared by the method mentioned in Example 1 was used. Preparation of an extract from wheat embryo was carried out by the exactly same method as Example 1 except that the solution for extraction and the solution used for gel filtration contained 20 kinds of heavy hydrogen-labeled L-amino acids instead of 20 kinds of selenomethionine-containing L-amino acids. Concentration of the prepared extract was adjusted to 170˜250 A260 nm (A260/A280=1.5).
Although the composition of the protein synthesis reaction solution is as same as that described in Example 1, it contains 20 kinds of heavy hydrogen-labeled L-amino acids instead of 20 kinds of selenomethionine-containing L-amino acids.
Then enzymatic properties of the purified heavy hydrogen-labeled DHFR were biochemically investigated by the same manner as in Example 1. […]

SMILES: NC(=O)C1=CN([C@@H]2O[C@H](COP(=O)(O)OP(=O)(O)OC[C@H]3O[C@@H](n4cnc5c(N)ncnc54)[C@H](OP(=O)(O)O)[C@@H]3O)[C@@H](O)[C@H]2O)C=CC1 [NADPH, nicotinamide adenine dinucleotide phosphate (NADPH) of a reduced type]
- maximum velocity Vmax [1]: 0.143 A560 nm/μg/min
- maximum velocity Vmax [2]: 0.137 A560 nm/μg/min
- Vmax [3]: 0.127 A560 nm/μg/min
- Vmax [4]: 0.261 A560 nm/μg/min
